Entries after “also recorded” stand apart in the source; their conditions may differ.

For experiment [1], the system named is CDKN2A expression in HS-SY-II xenograft. Nature of the experiment: Gene expression changes in vivo in HS-SY-II xenograft by RT-PCR. The conditions noted are these: 500 mg/kg oral twice daily for 7 days. Also on record: species or system mice. The method, then:
Tumor samples were collected at approximately 3 hours after the last dose from mice used in analysis for PK values and PD alterations.

The subject of experiment [2] is HS-SY-II cells. Nature of the experiment: Adherent cell line long-term (14-day) proliferation assay, CellTiter-Glo. The experiment is classed as cell-based, human. The conditions noted are these: 14-day long-term proliferation assay. The method, then: (§1) 96-well plating for 7 day assay: For each adherent cell line, plated cells in a volume of 100 μL in 96-well plates, to be treated in triplicate, either in the evening (to treat with compound the following day) or in morning (to treat with compound in the evening), to allow cells to attach to plates before compound treatment.
(§2) 6-well plates to be split for 7-14 day assay: Plated 2 mL of cells at the correct density in each well of the 6-well plate. Calculated the correct density from the 96-well plate growth curve by multiplying the 96-well density by 30. The factor 30 came from growth area of the 6-well plate divided by the growth area of the 96-well plate (9.5 cm^2/0.32 cm^2=29.7, rounded up to 30), which corresponds to 30-fold more surface area in a 6-well vs. a 96-well plate.
(§3) Day 0: Treated with compound or DMSO by removing media and adding back either 100 μL (for 96-well plate) or 2 mL (for 6-well plate) media with the correct dilutions of compound/DMSO. Table 1 includes an example of 96-well plate map. Plates were incubated for 96 hours.
(§4) Read one 96-well plate with CellTiter-Glo® for a Day 0 reading (media change not necessary for this plate).
(§5) Day 4: Read one 96-well plate with CellTiter-Glo® for a Day 4 reading (media change not necessary for this plate before reading). Replaced media with fresh media containing compound on Day 4 in 96-well plates and 6-well plates.
(§6) Day 7: read final 96-well plate with CellTiter-Glo®.
(§7) Counted individual wells of 6-well plates, and replated cells to initial plating density in 96-well plates, as described above.
(§8) Repeated steps for Days 0-7 for Days 7-14 of the proliferation assay.
(§9) Particularly, approximately 12 hours before compound treatment, HS-SY-II or SW982 cells were plated at the density of 24,000 cells/well and 7,500 cells/well, respectively in 6-well plates. On day 0, cells were treated with either DMSO or compound starting at 10 μmol/L and decreasing in fourfold dilutions. On day 7, the cells in 6-well plates were trypsinized, counted by TC10 automated cell counter (Bio-Rad, Richmond, Calif.) and replated at the density of 800 cells/well and 250 cells/well for HS-SY-II and SW982, respectively in 96-well plates in triplicate. The cells were allowed to adhere to the plate overnight, and treated with either DMSO or compound as on Day 0. On days 0, 7, 11, and 14, cell viability was determined by CellTiter-Glo® Luminescent Cell Viability Assay (Promega) with EnVision 2103 Multilabel Reader (Perkin-Elmer, Wellesley, Mass.). Compound/media was changed with new one on Day 4 and 11. The ratios of the measured values on Days 7, 11, and 14 to that of day 7 were used to plot proliferation from day 7 to day 14, and to calculate the IC50 values on Day 14. […]

Experiment [3] deals with SW982 cells. The experiment is described as above. The experiment is classed as cell-based, human. Particulars: SW982, 14-day long-term proliferation assay. The method, then:
as §1, §2, §3, §4, §5, §6, §7, §8, §9

For experiment [4], the system named is ATF3, EGR1 expression in SW982 cells. In words: Gene expression changes in vitro by RT-PCR, normalized to GAPDH. It counts as cell-based, human. The conditions noted are these: SW982 in vitro culture. The method, then: HS-SY-II and SW982 cells were treated with EZH2 inhibitors (Compound A or EPZ-011989) and collected at the indicated time points. Total RNA isolation and cDNA synthesis were performed using the TaqMan Gene Expression Cells-to-CT kit (4399002, Life technologies) according to the manufacturer's protocol. ATF3, EGR1, CDKN2A and GAPDH expression were analyzed by using the TaqMan Gene Expression Assays (Life technologies, 4331182) and the TaqMan Probes (Hs00231069_m1, Hs00152928_m1, Hs00233365_m1, and Hs99999905_m1, respectively).

For experiment [5], the system named is H3K27me3/total H3 in HS-SY-II cells. Nature of the experiment: H3K27 methylation alterations by ELISA of extracted histones. The experiment is classed as cell-based, human. Particulars: 96 hours. The method, then:
(§10) HS-SY-II and SW982 cells were treated with either DMSO or Compound A starting at 40 nmol/L and decreasing in fourfold dilutions for 96 hours. Cells were washed by ice cold PBS, harvested by cell scraper, and lysed with 100 μl of nuclear extraction buffer (10 mM Tris-HCl, 10 mM MgCl2, 25 mM KCl, 1% Triton X-100, 8.6% Sucrose, plus 1× Halt Protease inhibitor cocktail (1861281, Thermo Scientific). Nuclei were collected by centrifugation at 600 g for 5 minutes at 4° C. and washed once with ice cold PBS. Supernatant was removed and histones extracted for one hour with 100 μL of 0.4 N cold sulfuric acid. Extracts were clarified by centrifugation at 10,000 g for 10 minutes at 4° C. and transferred to a fresh microcentrifuge tube containing 1 mL of ice cold acetone. Histones were precipitated at −20° C. for overnight, pelleted by centrifugation at 10,000 g for 10 minutes and resuspended in 100 μl of water. Histones were quantified using the BCA protein assay (23225, Pierce). […] Subsequently, the developed colors in the wells were measured using a plate spectrophotometer (SpectraMax 250, Molecular Devices) at 450 nm (reference wavelength 650 nm). The H3K27me3 levels were adjusted to total histone H3, and expressed as fold changes to DMSO control.
(§11) The range of IC50 values (two independent experiments), shown in FIG. 6B, were determined by GraphPad Prism (GraphPad Software).

Experiment [6] relates to H3K27me3/total H3 in SW982 cells. Described as above. It counts as cell-based, human. The conditions noted are these: SW982, 96 hours. The method, then:
as §10, §11

Turning to `CCN(c1cc(-c2ccc(CN3CCOCC3)cc2)cc(C(=O)NCc2c(C)cc(C)[nH]c2=O)c1C)C1CCOCC1` [Compound A], in experiment [1], the “CDKN2A expression in tumor” value is recorded as “significantly upregulated”. Besides, the “sensitivity of cell proliferation” value in experiment [2] is reported as “highly sensitive; also recorded: high sensitivity”; in experiment [3] it was “are not; also recorded: did not; also recorded: not sensitive”. In addition, the “ATF3 and EGR1 expression” value in experiment [4] was “not in SW982”. The “ratio of H3K27me3/total H3 (ratio to control)” value in experiment [5] and in experiment [6] was “decreased ratios” each time.

(Values after US10946024B2, “Method for treating cancer” (Epizyme, Inc., priority 2014, dated 2021).)
